# How the values were obtained:
# MLKL [1] = target: T1, MLKL (Homo sapiens, UniProt Q8NB16); test: MLKL degradation assay in HepG2 cell line (western blot); type: cell-based; set-up: endogenous in cells; host or cells: HepG2 or HaCaT; conditions: cell line not given; for Degradation assay (Degradation %) 1 μM: compound 1 μM; for Degradation assay (Degradation %) 10 μM: compound 10 μM
# T1 sequence (Q8NB16 1-471): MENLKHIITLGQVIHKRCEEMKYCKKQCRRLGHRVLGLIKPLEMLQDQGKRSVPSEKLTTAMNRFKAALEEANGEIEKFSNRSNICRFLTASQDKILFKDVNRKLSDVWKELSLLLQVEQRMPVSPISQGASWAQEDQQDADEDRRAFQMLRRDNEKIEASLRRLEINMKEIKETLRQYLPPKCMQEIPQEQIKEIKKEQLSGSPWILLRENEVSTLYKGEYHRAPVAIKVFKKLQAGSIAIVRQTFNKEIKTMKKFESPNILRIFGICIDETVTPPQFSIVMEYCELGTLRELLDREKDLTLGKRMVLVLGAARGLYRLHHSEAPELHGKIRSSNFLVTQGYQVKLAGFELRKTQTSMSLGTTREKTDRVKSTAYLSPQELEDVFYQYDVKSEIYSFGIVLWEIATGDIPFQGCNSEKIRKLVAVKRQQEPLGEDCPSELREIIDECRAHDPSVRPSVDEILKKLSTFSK
# Outline: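 HepG2 cells were exposed to compound at a final 1 or 10 μM for 20-24 hours at 37 °C, 5% CO2. RIPA lysates were normalized by BCA assay, 10-15 μg protein resolved by SDS-PAGE, and MLKL levels detected by western blot with chemiluminescence.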
# MLKL [2] = target: T1, MLKL; test: Measurement of binding affinity with MLKL receptor (competitive binding assay, Kd); set-up: made in house; host or cells: HEK 293 cell line (T7 phage in E. coli BL21-derived host is also described)
# Outline: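 Kd comes from a bead-based competition format: compound-dependent loss of DNA-tagged, HEK 293-expressed MLKL capture, measured as eluate kinase by qPCR. Final DMSO is 0.9%.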
# FADD−/− Jurkat cells = test: Necroptosis inhibition assay, TNF-α-induced necroptosis (CellTiter-Glo 2.0); type: cell-based, human; conditions: TNF-α 15 ng/mL; for Necroptosis inhibition assay (Rescue %) 1 μM: compound 1 μM; for Necroptosis inhibition assay (Rescue %) 10 μM: compound 10 μM
# Outline: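 Cells at 5.0×10^5 cells/mL were pretreated with compound (final 0.1, 1 and 10 μM) for 30 minutes at room temperature, then given TNF-α at 15 ng/mL final. After 20 to 24 hours at 37° C, 5% CO2, viability was read as ATP luminescence to calculate cytotoxicity and necroptosis inhibition rate.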
Degradation assay (Degradation %) 1 μM (MLKL [1]),Degradation assay (Degradation %) 10 μM (MLKL [1]),Kd (MLKL [2]),SMILES,Necroptosis inhibition assay (Rescue %) 1 μM (FADD−/− Jurkat cells),Necroptosis inhibition assay (Rescue %) 10 μM (FADD−/− Jurkat cells),Necroptosis inhibition assay (Rescue %) 1.1 μM (FADD−/− Jurkat cells; compound 1.1 µM),Necroptosis inhibition assay (Rescue %) 1 μM (FADD−/− Jurkat cells; FADD−/− Jurkat cells),Necroptosis inhibition assay (Rescue %) 10 μM (FADD−/− Jurkat cells; FADD−/− Jurkat cells)
57.56%,36.05%,6.7 nM,"Nc1ncc(-c2cnn(C3CCN(CC4CCN(C(=O)CC5CCN(c6ccc7c(c6)C(=O)N(C6CCC(=O)NC6=O)C7=O)CC5)CC4)CC3)c2)nc1C(=O)O[C@@H](C(=O)Nc1ccc(F)cc1)c1ccccc1 (stereo partly drawn) [TDH-205, (R)-2-((4-fluorophenyl)amino)-2-oxo-1-phenylethyl 3-amino-6-(1-(1-((1-(2-(1-(2-(2,6-dioxopiperidin-3-yl)-1,3-dioxoisoindolin-5-yl)piperidin-4-yl)acetyl)piperidin-4-yl)methyl)piperidin-4-yl)-1H-pyrazol-4-yl)pyrazine-2-carboxylate]",59.88%,41.34%,,,
91.6%,86.73%,0.5 nM,"Nc1ncc(-c2cnn(C3CCN(CCCN4CCN(C(=O)COc5ccc6c(c5)C(=O)N(C5CCC(=O)NC5=O)C6=O)CC4)CC3)c2)nc1C(=O)O[C@@H](C(=O)Nc1ccc(F)cc1)c1ccccc1 (stereo partly drawn) [TDH-358, (R)-2-((4-fluorophenyl)amino)-2-oxo-1-phenylethyl 3-amino-6-(1-(1-(3-(4-(2-((2-(2,6-dioxopiperidin-3-yl)-1,3-dioxoisoindolin-5-yl)oxy)acetyl)piperazin-1-yl)propyl)piperidin-4-yl)-1H-pyrazol-4-yl)pyrazine-2-carboxylate]",,39.65%,100.10 (1.1 µM) %,,
85.96%,82.98%,1.3 nM,"Nc1ncc(-c2cnn(C3CCN(CCC4CCN(C(=O)COc5ccc6c(c5)C(=O)N(C5CCC(=O)NC5=O)C6=O)CC4)CC3)c2)nc1C(=O)O[C@@H](C(=O)Nc1ccc(F)cc1)c1ccccc1 (stereo partly drawn) [TDH-201, (R)-2-((4-fluorophenyl)amino)-2-oxo-1-phenylethyl 3-amino-6-(1-(1-(2-(1-(2-((2-(2,6-dioxopiperidin-3-yl)-1,3-dioxoisoindolin-5-yl)oxy)acetyl)piperidin-4-yl)ethyl)piperidin-4-yl)-1H-pyrazol-4-yl)pyrazine-2-carboxylate]",91.53%,62.79%,,,
70%,53.96%,4.2 nM,"Nc1ncc(-c2cnn(C3CCN(CC4CCN(C(=O)CC5CCN(c6cccc7c6C(=O)N(C6CCC(=O)NC6=O)C7=O)CC5)CC4)CC3)c2)nc1C(=O)O[C@@H](C(=O)Nc1ccc(F)cc1)c1ccccc1 (stereo partly drawn) [TDH-204, (R)-2-((4-fluorophenyl)amino)-2-oxo-1-phenylethyl 3-amino-6-(1-(1-((1-(2-(1-(2-(2,6-dioxopiperidin-3-yl)-1,3-dioxoisoindolin-4-yl)piperidin-4-yl)acetyl)piperidin-4-yl)methyl)piperidin-4-yl)-1H-pyrazol-4-yl)pyrazine-2-carboxylate]",61.24%,38.71%,,,

# Second part, the compound before the results:
SMILES,Degradation assay (Degradation %) 1 μM (MLKL [1]),Degradation assay (Degradation %) 10 μM (MLKL [1]),Kd (MLKL [2]),Necroptosis inhibition assay (Rescue %) 1 μM (FADD−/− Jurkat cells),Necroptosis inhibition assay (Rescue %) 10 μM (FADD−/− Jurkat cells),Necroptosis inhibition assay (Rescue %) 1.1 μM (FADD−/− Jurkat cells; compound 1.1 µM),Necroptosis inhibition assay (Rescue %) 1 μM (FADD−/− Jurkat cells; FADD−/− Jurkat cells),Necroptosis inhibition assay (Rescue %) 10 μM (FADD−/− Jurkat cells; FADD−/− Jurkat cells)
"Nc1ncc(-c2cnn(C3CCN(C(=O)COCCOCCNC(=O)C4CCN(c5cccc6c5C(=O)N(C5CCC(=O)NC5=O)C6=O)CC4)CC3)c2)nc1C(=O)O[C@@H](C(=O)Nc1ccc(F)cc1)c1ccccc1 (stereo partly drawn) [TDH-194, (R)-2-((4-fluorophenyl)amino)-2-oxo-1-phenylethyl 3-amino-6-(1-(1-(2-(2-(2-(1-(2-(2,6-dioxopiperidin-3-yl)-1,3-dioxoisoindolin-4-yl)piperidine-4-carboxamido)ethoxy)ethoxy)acetyl)piperidin-4-yl)-1H-pyrazol-4-yl)pyrazine-2-carboxylate]",33.12%,18.24%,6.7 nM,67.94%,58.3%,,,
"Nc1ncc(-c2cnn(C3CCN(CCOCCOCCOCCNC(=O)C4CN(c5cccc6c5C(=O)N(C5CCC(=O)NC5=O)C6=O)C4)CC3)c2)nc1C(=O)O[C@@H](C(=O)Nc1ccc(F)cc1)c1ccccc1 (stereo partly drawn) [TDH-141, (R)-2-((4-fluorophenyl)amino)-2-oxo-1-phenylethyl 3-amino-6-(1-(1-(1-(1-(2-(2,6-dioxopiperidin-3-yl)-1,3-dioxoisoindolin-4-yl)azetidin-3-yl)-1-oxo-5,8,11-trioxa-2-azatridecan-13-yl)piperidin-4-yl)-1H-pyrazol-4-yl)pyrazine-2-carboxylate]",17.47%,58.93%,8.1 nM,2.72%,10.22%,,,
"Nc1ncc(-c2cnn(C3CCN(CCCN4CCN(C(=O)COc5cccc6c5C(=O)N(C5CCC(=O)NC5=O)C6=O)CC4)CC3)c2)nc1C(=O)OC(C(=O)Nc1ccc(F)cc1)c1ccccc1 (stereo not shown) [TDH-243, 2-((4-fluorophenyl)amino)-2-oxo-1-phenylethyl 3-amino-6-(1-(1-(3-(4-(2-((2-(2,6-dioxopiperidin-3-yl)-1,3-dioxoisoindolin-4-yl)oxy)acetyl)piperazin-1-yl)propyl)piperidin-4-yl)-1H-pyrazol-4-yl)pyrazine-2-carboxylate]",57.14%,54.82%,0.94 nM,61.25%,53.31%,,,
"Nc1ncc(-c2cnn([C@@H]3CCN(CCOCCOCCNC(=O)COc4ccc5c(c4)C(=O)N(C4CCC(=O)NC4=O)C5=O)C3)c2)nc1C(=O)OC(C(=O)Nc1ccc(F)cc1)c1ccccc1 (stereo partly drawn) [TDH-270, 2-((4-fluorophenyl)amino)-2-oxo-1-phenylethyl 3-amino-6-(1-((3R)-1-(2-(2-(2-(2-((2-(2,6-dioxopiperidin-3-yl)-1,3-dioxoisoindolin-5-yl)oxy)acetamido)ethoxy)ethoxy)ethyl)pyrrolidin-3-yl)-1H-pyrazol-4-yl)pyrazine-2-carboxylate]",19.32%,39.14%,6.1 nM,38.56%,99.37%,,,
"Nc1ncc(-c2cnn(C3CCN(CCCCCCNC(=O)C4CN(c5ccc6c(c5)C(=O)N(C5CCC(=O)NC5=O)C6=O)C4)CC3)c2)nc1C(=O)O[C@@H](C(=O)Nc1ccc(F)cc1)c1ccccc1 (stereo partly drawn) [TDH-114, (R)-2-((4-fluorophenyl)amino)-2-oxo-1-phenylethyl 3-amino-6-(1-(1-(6-(1-(2-(2,6-dioxopiperidin-3-yl)-1,3-dioxoisoindolin-5-yl)azetidine-3-carboxamido)hexyl)piperidin-4-yl)-1H-pyrazol-4-yl)pyrazine-2-carboxylate]",8.68%,62.79%,0.83 nM,13.68%,38.3%,,,
"Nc1ncc(-c2cnn(C3CCN(CCc4cn(C5CCN(C(=O)COc6ccc7c(c6)C(=O)N(C6CCC(=O)NC6=O)C7=O)CC5)nn4)CC3)c2)nc1C(=O)O[C@@H](C(=O)Nc1ccc(F)cc1)c1ccccc1 (stereo partly drawn) [TDH-451, (R)-2-((4-fluorophenyl)amino)-2-oxo-1-phenylethyl 3-amino-6-(1-(1-(2-(1-(1-(2-((2-(2,6-dioxopiperidin-3-yl)-1,3-dioxoisoindolin-5-yl)oxy)acetyl)piperidin-4-yl)-1H-1,2,3-triazol-4-yl)ethyl)piperidin-4-yl)-1H-pyrazol-4-yl)pyrazine-2-carboxylate]",64.37%,50.39%,0.54 nM,,,,19.55%,17.67%
"Nc1ncc(-c2cnn(C3CCN(CCOCCNC(=O)CNc4ccc5c(c4)C(=O)N(C4CCC(=O)NC4=O)C5=O)CC3)c2)nc1C(=O)O[C@@H](C(=O)Nc1ccc(F)cc1)c1ccccc1 (stereo partly drawn) [TDH-125, (R)-2-((4-fluorophenyl)amino)-2-oxo-1-phenylethyl 3-amino-6-(1-(1-(2-(2-(2-((2-(2,6-dioxopiperidin-3-yl)-1,3-dioxoisoindolin-5-yl)amino)acetamido)ethoxy)ethyl)piperidin-4-yl)-1H-pyrazol-4-yl)pyrazine-2-carboxylate]",30.1%,69.02%,3.2 nM,21.27%,54.55%,,,

# Source: patent US20240252488A1 (KOREA RESEARCH INSTITUTE OF CHEMICAL TECHNOLOGY, priority 2020, published 2024)
